Consider three compounds from patent US20250134907A1, “FUSED DIAZEPINES AS AGONISTS OF THE INSULIN-LIKE 3 (INSL3) PEPTIDE RECEPTOR RXFP2 AND METHODS OF USE THEREOF” (The United States of America,as represented by the …, priority 2022, published 2025).

As usually defined, the Emax is the greatest response seen or fitted, relative to the assay's reference. As a reminder, the EC50 is the concentration that produces a half-maximal response.

Bridges are numbered along the chain shown (N, C = ends). Roman numbers before positions name the chains, in order. Where no end group is shown, it is not given here.

Data set [1] addresses T1, WT RXFP2 (Homo sapiens, UniProt Q8WXD0).
T1 construct: using full-length human RXFP1 and RXFP2 receptor constructs; FLAG; expressed in transfected cells; host or cells: HEK293T (transient, Lipofectamine2000)
Briefly: HTRF cAMP assay in HEK293T cells transiently transfected with WT RXFP2. It counts as cell-based. The source says:
(§1) To further investigate the involvement of the RXFP2 extracellular and transmembrane domains in agonist activation of the receptor, two complementary chimeras were created using the RXFP1 receptor, which is not activated by the agonists of formula (I), to transiently transfect HEK293T cells and measured changes in cAMP induction using the HTRF assay.
(§2) Chimeric receptors were generated by IN-FUSION™ (Takara Bio USA, Inc., San Jose, CA) mutagenesis using full-length human RXFP1 and RXFP2 receptor constructs. Polymerase chain reaction (PCR) was performed using PfuTurbo high-fidelity DNA polymerase (Agilent Technologies, Santa Clara, CA) and overlapping primers with at least 15 bp sequence homology within the fusion site. PCR products were digested with Dpnl restricton enzyme at 37° C. overnight, run on a 0.8% agarose gel and purified using the GENEJET™ Gel extraction kit (Thermo Scientific, Waltham, MA). The purified DNA fragments were then ligated into the BamHI and XhoI pre-digested pcDNA3.1™/Zeo(+) AmpR mammalian expression vector using the In-Fusion HD enzyme premix (Clontech, Mountain View, CA) at 50° C. for 15 minutes, and the resulting product was used to transform Stellar competent cells (Takara Bio USA, Inc., San Jose, CA). The clones were fully sequenced to confirm the correct fusion of both receptor fragments. Chimera RXFP2-1 contained the extracellular domain of RXFP2 and the transmembrane domain of RXFP1. Accordingly, chimera RXFP1-2 contained the extracellular domain of RXFP1 and the transmembrane domain of RXFP2.
(§3) HEK293T cells were seeded in 6-well flat-bottom clear plates at 0.5 million cells/well in 2 mL/well of growth medium (DMEM, 10% FBS, 1× Pen/Strep) and allowed to attach overnight at 37° C. and 5% CO2. The next morning, cells were transfected with 2 μg of plasmid (chimeric receptors, WT RXFP2, or WT RXFP1) and 6 μl of Lipofectamine2000 (Invitrogen, Waltham, MA) in a total volume of 200 μl/well OPTI-MEM™ I (Thermo Fisher, Waltham, MA) reduced serum medium and allowed to incubate an additional 24 hours. The next day, transfected cells were seeded in 96-well flat-bottom opaque plates at 30,000 cells/well in 60 μL/well of serum-free DMEM medium and allowed to attach overnight at 37° C. at 5% CO2. The next morning, cells were treated with 1 μL/well of compound (25 μM-0.25 nM), 2 μM forskolin, or DMSO vehicle. Cells were also treated with 4 μL of positive control INSL3 (100-0.01 nM), Relaxin2 (100-10 nM), or vehicle (serum-free DMEM+IBMX). Plates were incubated for 1 hour at 37° C. and 5% CO2, after which kit cAMP-d2 and anti-cAMP antibody were added as previously described. Cells were incubated for 1 hour at room temperature, and then the signal was read on a CLARIOstar plate reader (BMG Labtech, Germany).
On the technique in general: TR-FRET usually uses a lanthanide donor and a delayed reading to cut background.

Data set [2] relates to chimera RXFP2-1 (extracellular domain of RXFP2, transmembrane domain of RXFP1). Put plainly: HTRF cAMP assay in HEK293T cells transiently transfected with chimera RXFP2-1. It counts as cell-based, human.
Excerpt: as §1, §2, §3

Data set [3] deals with chimera RXFP1-2 (extracellular domain of RXFP1, transmembrane domain of RXFP2). Briefly: HTRF cAMP assay in HEK293T cells transiently transfected with chimera RXFP1-2. It counts as cell-based, human.
Excerpt: as §1, §2, §3

The target in data set [4] is T2, RXFP2 (Homo sapiens, UniProt Q8WXD0).
T2 construct: expressed in transfected cells
Briefly: HTRF cAMP assay in HEK293T cells stably expressing RXFP2 (HEK-RXFP2). The data set is classed as cell-based. As to conditions: for % EFF vs. 100 nM INSL3 (c): normalized to 100 nM INSL3 cAMP response. The gist of the method:
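HEK-RXFP2 cells in serum-free DMEM were treated with compound up to 25 μM for 1 h at 37°C, and cAMP was read by HTRF immunoassay. Condition (a): 20,000 cells/well, 200 μM IBMX, normalized to 1 nM INSL3. Condition (b): 10,000 cells/well, 1 nM INSL3. Condition (c): 7,500 cells/well, no IBMX, 100 nM INSL3.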

The target in data set [5] is T2, RXFP2. Briefly: Luciferase cAMP assay in HEK-CRE-Luc-RXFP2 cells. The data set is classed as cell-based. Here is the method:
A confirmatory cAMP assay was done to eliminate false positives using a HEK293T-CRE-Luc cell line stably transfected with RXFP2 (HEK-CRE-Luc-RXFP2), as this cell line expresses luciferase under the control of the cAMP response element (CRE). Activation of the RXFP2 receptor increases intracellular cAMP levels, inducing luciferase transcription in the nucleus. Thus, luciferase activity in these cells is proportional to cAMP accumulation. For this assay, cells were seeded in 96-well flat-bottom opaque plates at 20,000 cells/well in 60 μL/well of serum-free DMEM medium and allowed to attach overnight at 37° C., 5% CO2. The next morning, cells were treated with 1 μL/well of compound (25 μM-0.21 nM), 1 μM forskolin, or DMSO vehicle. Cells were also treated with 4 μL of INSL3 (100-0.01 nM) (Phoenix Pharmaceuticals, Burlingame, CA) or vehicle serum-free DMEM. Cells were incubated with the treatments for 3 hours at 37° C., 5% CO2, then rested 30 minutes at room temperature for equilibration, after which 65 μL/well of substrate AMPLITE™ Luciferase Reporter Gene Assay Kit (AAT Bioquest, Sunnyvale, CA) was added. Plates were incubated for 40 minutes at room temperature protected from light, and then luciferase output was read on a CLARIOstar plate reader (BMG Labtech, Germany). […]

The subject of data set [6] is HEK293T cells. Briefly: CellTiter-Glo cytotoxicity assay in HEK293T cells. The data set is classed as cell-based, human. Conditions: 24 h, 25 μM and 8.3 μM. As to the method:
(§4) Cytotoxicity induced by the compounds in HEK293T cells and primary human calvarial osteoblasts (HCO) (ScienCell Research Laboratories, San Diego, CA) were tested using the […]-GLO™ Luminescent Cell Viability Assay (Promega, Madison, WI). This is a luminescence-based assay that determines viable cells by measuring cellular adenosine triphosphate (ATP) production. The luciferase enzyme requires ATP to catalyze the conversion of beetle luciferin to oxyluciferin and light. Thus, luciferase activity is proportional to ATP accumulation in the cells. For this assay, 96-well flat-bottom opaque plates seeded with HEK293T cells at 5,000 cells/well and HCO cells at 3,000 cells/well in 100 μL/well of growth medium (DMEM, 10% FBS, 1× Penicillin/Streptomycin). After incubating overnight at 37° C., 5% CO2 to allow attachment, cells were treated with 1 μL/well of compound (25-0.1 μM) or DMSO vehicle and incubated an additional 24 hours. Then cells were equilibrated for 30 minutes at room temperature and 100 μL/well of […]-GLO™ Reagent was added. Plates were placed on an orbital shaker for 2 minutes and incubated at room temperature for 10 minutes to stabilize the luminescent signal, which was read immediately after on a CLARIOstar plate reader (BMG Labtech, Germany). […] The HEK293T results represent the means±SEM of 3 technical replicates. The HCO results represent the means±SEM of 3 independent experiments.
For orientation: In ATP-based viability assays light output follows the ATP content of the culture.

For data set [7], the system named is primary human calvarial osteoblasts (HCO). Put plainly: CellTiter-Glo cytotoxicity assay in HCO cells. The data set is classed as cell-based. As to conditions: 24 h. As to the method:
as §4

Setting [8] is: condition (c): 7,500 cells/well, IBMX omitted.

T2 sequence (Q8WXD0 whole entry): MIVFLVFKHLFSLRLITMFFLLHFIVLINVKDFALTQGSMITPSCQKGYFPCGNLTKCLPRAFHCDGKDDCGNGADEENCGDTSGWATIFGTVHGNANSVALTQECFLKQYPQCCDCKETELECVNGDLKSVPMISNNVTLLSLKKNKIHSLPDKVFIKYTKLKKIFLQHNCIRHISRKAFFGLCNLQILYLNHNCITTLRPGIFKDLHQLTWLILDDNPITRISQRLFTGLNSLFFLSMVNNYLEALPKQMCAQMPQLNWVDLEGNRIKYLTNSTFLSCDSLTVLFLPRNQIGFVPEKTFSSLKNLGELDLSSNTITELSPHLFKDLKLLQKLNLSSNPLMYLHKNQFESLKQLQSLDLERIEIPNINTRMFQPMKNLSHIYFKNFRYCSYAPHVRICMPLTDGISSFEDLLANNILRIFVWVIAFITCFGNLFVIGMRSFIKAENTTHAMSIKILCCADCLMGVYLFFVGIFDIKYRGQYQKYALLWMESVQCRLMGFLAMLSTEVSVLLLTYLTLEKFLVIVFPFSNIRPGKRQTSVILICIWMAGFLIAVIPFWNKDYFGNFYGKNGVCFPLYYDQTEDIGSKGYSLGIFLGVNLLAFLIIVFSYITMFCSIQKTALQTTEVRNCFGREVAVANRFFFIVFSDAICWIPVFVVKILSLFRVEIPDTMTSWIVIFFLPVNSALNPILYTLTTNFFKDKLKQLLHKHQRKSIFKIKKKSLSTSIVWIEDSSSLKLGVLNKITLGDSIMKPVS
T1 sequence (Q8WXD0 whole entry): as above

As to “I: PTPEMREKLCGHHFVRALVRVCGGPRWSTEA / II: AAATNPARYCCLSGCTQQDLLTLCPY (disulfide I:10-II:11, I:22-II:24, II:10-II:15) [INSL3]”, the Emax in data set [1] (HEK-293T, normalized to 2 μM forskolin cAMP response as 100% activity) amounted to 78.4 ± 11.2%; in data set [2] (RXFP2-1 chimera, normalized to 2 μM forskolin cAMP response as 100% activity), 92.30 ± 21.82%. In addition, the EC50 in data set [1] (read-out: EC50 (μM or nM)) is 0.0005 ± 0.00035 µM; in data set [2] (RXFP2-1 chimera, read-out: EC50 (μM or nM)), 0.00074 ± 0.00061 µM. In data set [2], the “cAMP response of chimera RXFP2-1” value is listed as “levels comparable to WT RXFP2”. Moreover, the “cAMP response of chimera RXFP1-2” value in data set [3] is reported as “did not respond”.
Take `Cc1cc(-c2ccc3c(c2)C(=O)N2CCN(C(=O)COc4ccc(OC(F)(F)F)cc4Br)C[C@H]2C(=O)N3)cc(C(F)(F)F)c1` [Example 153, (S)-2-(2-(2-bromo-4-(trifluoromethoxy)phenoxy)acetyl)-8-(3-methyl-5-(trifluoromethyl)phenyl)-1,3,4,12a-tetrahydrobenzo[e]pyrazino[1,2-a][1,4]diazepine-6,12 (2H, 11H)-dione]: the EC50 in data set [4] (condition (b): 10,000 cells/well, IBMX 200 μM) is 23.6 to 50.2 nM; in data set [4] (setting [8]), 101 to 319 nM; in data set [5] (3 h treatment, 25 μM-0.21 nM) it was 24.6 nM. Besides, the “% EFF vs. 1 nM INSL3 (b)” value in data set [4] (condition (b): 10,000 cells/well, IBMX 200 μM, normalized to 1 nM INSL3 cAMP response) is 149.80-150.94%. Also, the “% EFF vs. 100 nM INSL3 (c)” value in data set [4] (setting [8]) is reported as 45.16-86.79%. For the same compound, the “Emax (% Eff vs. 10 nM INSL3)” value in data set [5] (relative to 10 nM INSL3 response) came out at 109.6%. Besides, the cytotoxicity entry is given as “some toxicity” in data set [6], “minimal toxicity” in data set [7] (25 μM) and “not toxic” in data set [7] (lower concentrations than 25 μM).
For `O=C1Nc2ccc(-c3cc(C(F)(F)F)cc(C(F)(F)F)c3)nc2C(=O)N2CCN(C(=O)COc3ccc(OC(F)(F)F)cc3I)C[C@@H]12` (single isomer, unassigned) [Example 206], in data set [4] (setting [8]), the EC50 stood at 563 nM and the “% EFF vs. 100 nM INSL3 (c)” value is on record as 60.89%.
